The results in this text go back to US20200392497A1, “METHODS AND COMPOSITIONS FOR DETECTING AND PROMOTING CARDIOLIPIN REMODELING AND CARDIOMYOCYTE MATURATION AND RELATED METHODS OF TREATING MITOCHONDRIAL DYSFUNCTION” (University of Washington, priority 2017, published 2020).

This test deals with HADHA Mut CMs. Briefly: Seahorse MitoStress assay, proton leak in fatty acid challenged HADHA Mut CMs. To be noted: 1 nM, 12D Glc+FA media, vs non-treated Mut CMs. It counts as cell-based, human. The source says: To better understand the pathological state of HADHA Mut and KO CMs exposed to chronic FAs, their mitochondria were functionally assessed. […] Because exposure to FAs led to a reduction in mitochondrial membrane potential and reduced ATP production, it was postulated that this may be due in part to an increased proton leak.
The Seahorse XF96 extracellular flux analyzer was used to assess mitochondrial function as previously described [Kuppusamy, K. T., et al., Let-7 family of microRNA is required for maturation and adult-like metabolism in stem cell-derived cardiomyocytes. Proc Natl Acad Sci U.S.A., 2015]. The plates were pre-treated with 1:60 diluted Matrigel reduced growth factor (Corning). […] The OCR values were further normalized to the number of cells present in each well, quantified by the Hoechst staining (Hoechst 33342; Sigma-Aldrich) as measured using fluorescence at 355 nm excitation and 460 nm emission. […] ATP production was calculated as the difference between the basal respiration and respiration after oligomycin. Proton leak was calculated as the difference between respiration after oligomycin and after antimycin & rotenone. Cellular capacity to utilize palmitate as an energy source was calculated as the difference between the average OCR after second palmitate addition and the final respiration value before the second addition of palmitate. […]

In the case of elamipretide [SS-31], the “proton leak (OCR after oligomycin minus OCR after antimycin & rotenone)” value is “significantly lower”. The “proton leak (OCR after oligomycin minus OCR after antimycin & rotenone)” value (listed as elamipretide (SS-31)) is recorded as “rescued the increased proton leak”.
